Data as given in PubChem BioAssay (NCI).
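Values below derive from 48-hour exposures of cells grown in 96-well plates, with endpoints linearly interpolated between the two concentrations bracketing the appropriate inhibition level. TGI is the concentration that stops growth completely.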

Key:
Test in all cases: inhibition of tumour cell growth, NCI panel, 48 h
[1] = test system: CCRF-CEM leukemia
[2] = test system: KM12 colon
[3] = test system: A498 renal
[4] = test system: CAKI-1 renal
[5] = test system: ACHN renal
[6] = test system: SW-620 colon
[7] = test system: OVCAR-5 ovarian
[8] = test system: UO-31 renal
[9] = test system: 786-0 renal
[10] = test system: HOP-92 NSCLC
[11] = test system: MDA-N
[12] = test system: UACC-62 melanoma
[13] = test system: OVCAR-3 ovarian
[14] = test system: NCI/ADR-RES ovarian
[15] = test system: K-562 leukemia
[16] = test system: TK-10 renal
[17] = test system: IGROV1 ovarian
[18] = test system: U251 CNS
[19] = test system: PC-3 prostate
[20] = test system: NCI-H23 lung
[21] = test system: HCT-15 colon
[22] = test system: HS 578T breast
[23] = test system: SN12C renal
[24] = test system: OVCAR-4 ovarian
[25] = test system: HL-60(TB) leukemia
[26] = test system: UACC-257 melanoma
[27] = test system: HCC-2998 colon
[28] = test system: MDA-MB-435
[29] = test system: RXF 393 renal
[30] = test system: SF-539 CNS
[31] = test system: MOLT-4 leukemia
[32] = test system: COLO 205 colon
[33] = test system: SNB-75 CNS
[34] = test system: HT29 colon
[35] = test system: HCT-116 colon
[36] = test system: SK-MEL-28 melanoma
[37] = test system: M14 melanoma
[38] = test system: EKVX NSCLC
[39] = test system: NCI-H522 lung
[40] = test system: LOX IMVI melanoma
[41] = test system: MCF7 breast
[42] = test system: A549 NSCLC
[43] = test system: BT-549 breast
[44] = test system: SK-MEL-2 melanoma
[45] = test system: SK-MEL-5 melanoma
[46] = test system: MDA-MB-231 breast
[47] = test system: SF-295 CNS
[48] = test system: DU-145 prostate
[49] = test system: HOP-62 NSCLC
[50] = test system: SNB-19 CNS
[51] = test system: SR leukemia
[52] = test system: OVCAR-8 ovarian
[53] = test system: NCI-H460 lung
[54] = test system: T-47D breast
[55] = test system: SF-268 CNS
[56] = test system: M19-MEL melanoma
[57] = test system: DMS 114 small cell lung
[58] = test system: KM20L2 colon
[59] = test system: SK-OV-3 ovarian
[60] = test system: MALME-3M melanoma
[61] = test system: RPMI-8226 leukemia
[62] = test system: LXFL 529 NSCLC
[63] = test system: DMS 273 small cell lung
[64] = test system: SNB-78 CNS
[65] = test system: XF 498 CNS
[66] = test system: NCI-H226 lung
[67] = test system: HOP-18 NSCLC

CC1CCN(c2nnc(Cl)cc2C(=O)c2ccccc2)CC1
TGI [1]: 45.9 µM
TGI [2]: 52.6 µM
TGI [3]: > 100 µM
TGI [4]: 34 µM
TGI [5]: > 100 µM
TGI [6]: 59.6 µM
TGI [7]: > 100 µM
TGI [8]: > 100 µM
TGI [9]: > 100 µM
TGI [10]: 55.5 µM
TGI [11]: 53.2 µM
TGI [12]: > 100 µM
TGI [13]: 71 µM
TGI [14]: > 100 µM
TGI [15]: > 100 µM
TGI [16]: > 100 µM
TGI [17]: > 100 µM
TGI [18]: > 100 µM
TGI [19]: > 100 µM
TGI [20]: 82.4 µM
TGI [21]: > 100 µM
TGI [22]: 88.7 µM
TGI [23]: > 100 µM
TGI [24]: > 100 µM
TGI [25]: > 100 µM
TGI [26]: 63.2 µM
TGI [27]: 96.6 µM
TGI [28]: 56.9 µM
TGI [29]: 53.9 µM
TGI [30]: 77.4 µM
TGI [31]: 55 µM
TGI [32]: 46.9 µM
TGI [33]: 70 µM
TGI [34]: 39.5 µM
TGI [35]: > 100 µM
TGI [36]: > 100 µM
TGI [37]: 95.5 µM
TGI [38]: > 100 µM
TGI [39]: 77.7 µM
TGI [40]: > 100 µM
TGI [41]: 36.9 µM
TGI [42]: > 100 µM
TGI [43]: > 100 µM
TGI [44]: 40.8 µM
TGI [45]: 31.1 µM
TGI [46]: 96.2 µM
TGI [47]: 83.9 µM
TGI [48]: > 100 µM
TGI [49]: > 100 µM
TGI [50]: 92.7 µM
TGI [51]: 45.6 µM
TGI [52]: > 100 µM
TGI [53]: > 100 µM
TGI [54]: > 100 µM
TGI [55]: 3.04 µM

C[Si](C)(C)/C(Br)=C\CCN1C(=O)CCC1O (stereo unspecified)
TGI [1]: > 100 µM
TGI [2]: > 100 µM
TGI [56]: > 100 µM
TGI [3]: > 100 µM
TGI [57]: > 100 µM
TGI [5]: > 100 µM
TGI [6]: > 100 µM
TGI [7]: > 100 µM
TGI [58]: > 100 µM
TGI [8]: > 100 µM
TGI [9]: > 100 µM
TGI [59]: > 100 µM
TGI [10]: > 100 µM
TGI [12]: > 100 µM
TGI [13]: > 100 µM
TGI [60]: > 100 µM
TGI [15]: > 100 µM
TGI [16]: > 100 µM
TGI [17]: > 100 µM
TGI [18]: > 100 µM
TGI [20]: > 100 µM
TGI [21]: > 100 µM
TGI [23]: > 100 µM
TGI [24]: > 100 µM
TGI [61]: > 100 µM
TGI [26]: > 100 µM
TGI [62]: > 100 µM
TGI [29]: > 100 µM
TGI [30]: > 100 µM
TGI [31]: > 100 µM
TGI [32]: > 100 µM
TGI [63]: > 100 µM
TGI [33]: > 100 µM
TGI [34]: > 100 µM
TGI [35]: > 100 µM
TGI [64]: > 100 µM
TGI [36]: > 100 µM
TGI [37]: > 100 µM
TGI [38]: > 100 µM
TGI [39]: > 100 µM
TGI [40]: > 100 µM
TGI [42]: > 100 µM
TGI [44]: > 100 µM
TGI [47]: > 100 µM
TGI [65]: > 100 µM
TGI [50]: > 100 µM
TGI [66]: > 100 µM
TGI [67]: > 100 µM
TGI [52]: > 100 µM
TGI [53]: > 100 µM
TGI [55]: > 100 µM
